From article PMC9375929, “Functional and structural characteristics of HLA-B*13:01-mediated specific T cells reaction in dapsone-induced drug hypersensitivity” (Journal of Biomedical Science, 2022)

Target: T1, HLA-B*13:01 (with beta-2-microglobulin) (Homo sapiens, UniProt A0A583ZBB4)
T1 construct: for SPR incubated with beta-2-microglobulin (Chemicon) and amine-coupled; no peptide ligand mentioned for SPR; with Beta-2-microglobulin
Assay: surface plasmon resonance (Biacore T200), protein immobilised by amine coupling
Assay type: binding

Kd: 68.5 µM
Structure (SMILES): Nc1ccc(S(=O)(=O)c2ccc(N)cc2)cc1 [DDS]
